# US6737383B1, “Herbicidal oxadiazolidines” (priority 1999, dated 2004)
# Tests used:
# [1] = tested on: velvetleaf; experiment: Test B pre/postemergence velvetleaf; format: in vivo, Abutilon theophrasti
# Outline: (§1)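 Herbicidal effect was estimated by eye on a ten-point control scale after plants spent twelve to sixteen days in a greenhouse following soil or foliar treatment. Foliar sprays targeted plants at one to four leaves; all doses were formulated in a non-phytotoxic solvent with surfactant.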
# [2] = tested on: crabgrass; experiment: Test B pre/postemergence crabgrass; format: in vivo, Digitaria sanguinalis
# Outline: as §1
# [3] = tested on: sugar beet; experiment: Test B pre/postemergence sugar beet; format: in vivo, Beta vulgaris
# Outline: as §1
# [4] = tested on: surinam grass; experiment: Test B pre/postemergence surinam grass; format: in vivo, Brachiaria decumbens
# Outline: as §1
# [5] = tested on: smallflower flatsedge; experiment: Test B flood test smallflower flatsedge; format: in vivo, Cyperus difformis
# Outline: (§2)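 Read-out is a visual response score from 0 (no effect) to 10 (complete control), assigned by comparison with untreated controls. Treatment was applied at the 2-leaf stage, and plants stayed in the greenhouse for twelve to sixteen days before scoring.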
# [6] = tested on: duck salad; experiment: Test B flood test duck salad; format: in vivo, Heteranthera limosa
# Outline: as §2
# [7] = tested on: soybean; experiment: Test B pre/postemergence soybean; format: in vivo, Glycine max
# Outline: as §1
# [8] = tested on: bedstraw; experiment: Test B pre/postemergence bedstraw; format: in vivo, Galium aparine
# Outline: as §1
# [9] = tested on: cocklebur; experiment: Test B pre/postemergence cocklebur; format: in vivo, Xanthium strumarium; conditions: for Cocklebur plant response rating: Postemergence; for Plant response rating, Cocklebur: Preemergence
# Outline: as §1
# [10] = tested on: corn; experiment: Test B pre/postemergence corn; format: in vivo, Zea mays
# Outline: as §1
# [11] = tested on: wild oat; experiment: Test B pre/postemergence wild oat; format: in vivo, Avena fatua
# Outline: as §1
# [12] = tested on: wheat; experiment: Test B pre/postemergence wheat; format: in vivo, Triticum aestivum
# Outline: as §1
# [13] = tested on: bamyardgrass; experiment: Test B flood test barnyardgrass; format: in vivo, Echinochloa crus-galli
# Outline: as §2
# [14] = tested on: purple nutsedge; experiment: Test B pre/postemergence purple nutsedge; format: in vivo, Cyperus rotundus
# Outline: as §1
# [15] = tested on: rice; experiment: Test B flood test rice; format: in vivo, Oryza sativa
# Outline: as §2
# [16] = tested on: blackgrass; experiment: Test B pre/postemergence blackgrass; format: in vivo, Alopecurus myosuroides
# Outline: as §1
# [17] = Postemergence, Rate 62 g/ha, scale 0 to 10, 0 is no effect, 10 is complete control
# [18] = Postemergence, Rate 250 g/ha, scale 0 to 10, 0 no effect, 10 complete control
# [19] = Preemergence, Rate 62 g/ha, scale 0 to 10, 0 is no effect, 10 is complete control
# [20] = Preemergence, Rate 125 g/ha, scale 0 to 10 (0 no effect, 10 complete control)
# [21] = Preemergence, Rate 250 g/ha, scale of 0 to 10 where 0 is no effect and 10 is complete control
# [22] = Preemergence, Rate 500 g/ha, scale 0 (no effect) to 10 (complete control)
# [23] = Rate 125 g/ha, Postemergence, scale 0 to 10, 0 no effect, 10 complete control
# [24] = Rate 500 g/ha, Postemergence, 0 to 10 scale (0 no effect, 10 complete control)
# [25] = Rate 125 g/ha, Postemergence section (flood test species), scale 0 to 10, 0 no effect, 10 complete control
# [26] = flood test, listed under Postemergence, Rate 250 g/ha, scale 0 to 10, 0 no effect, 10 complete control
# [27] = Rate 500 g/ha, Postemergence section of Table B, 0 to 10 scale (0 no effect, 10 complete control)
# [28] = Rate 62 g/ha, scale 0 to 10, 0 is no effect, 10 is complete control
structure (smiles),measurement,setting,value
Cc1ccc(-n2c(=O)on(C(=O)N(c3ccc(F)cc3F)C(C)C)c2=O)c(C)c1 [Compound 24],Velvetleaf plant response rating,[1]; [17],0
same,Velvetleaf plant response rating,[1]; [18],0
same,"Plant response rating, Velvetleaf",[1]; [19],0
same,"Plant response rating, Velvetleaf",[1]; [20],0
same,"Plant response rating, Velvetleaf",[1]; [21],0
same,Velvetleaf plant response rating,[1]; [22],0
same,Velvetleaf plant response rating,[1]; [23],0
same,Crabgrass plant response rating,[2]; [17],2
same,Crabgrass plant response rating,[2]; [18],9
same,"Plant response rating, Crabgrass",[2]; [19],0
same,"Plant response rating, Crabgrass",[2]; [20],6
same,"Plant response rating, Crabgrass",[2]; [21],9
same,Crabgrass plant response rating,[2]; [22],10
same,Crabgrass plant response rating,[2]; [23],8
same,Crabgrass plant response rating,[2]; [24],10
same,Sugarbeets plant response rating,[3]; [17],0
same,Sugarbeets plant response rating,[3]; [18],0
same,"Plant response rating, Sugarbeets",[3]; [19],0
same,"Plant response rating, Sugarbeets",[3]; [20],3
same,"Plant response rating, Sugarbeets",[3]; [21],4
same,Sugarbeets plant response rating,[3]; [22],9
same,Sugarbeets plant response rating,[3]; [23],0
same,B. signalgrass plant response rating,[4]; [17],0
same,B. signalgrass plant response rating,[4]; [18],3
same,"Plant response rating, B. signalgrass",[4]; [19],0
same,"Plant response rating, B. signalgrass",[4]; [20],4
same,"Plant response rating, B. signalgrass",[4]; [21],4
same,B. signalgrass plant response rating,[4]; [22],6
same,B. signalgrass plant response rating,[4]; [23],3
same,B. signalgrass plant response rating,[4]; [24],3
same,S. Flatsedge plant response rating,[5]; [17],0
same,S. Flatsedge plant response rating,[5]; [25],0
same,S. Flatsedge plant response rating,[5]; [26],0
same,Ducksalad plant response rating,[6]; [17],0
same,Ducksalad plant response rating,[6]; [25],0
same,Ducksalad plant response rating,[6]; [27],0
same,Ducksalad plant response rating,[6]; [26],0
same,Soybean plant response rating,[7]; [17],3
same,Soybean plant response rating,[7]; [18],3
same,"Plant response rating, Soybean",[7]; [19],0
same,"Plant response rating, Soybean",[7]; [20],0
same,"Plant response rating, Soybean",[7]; [21],0
same,Soybean plant response rating,[7]; [22],2
same,Soybean plant response rating,[7]; [23],3
same,Bedstraw plant response rating,[8]; [17],2
same,Bedstraw plant response rating,[8]; [18],8
same,"Plant response rating, Bedstraw",[8]; [19],0
same,"Plant response rating, Bedstraw",[8]; [20],0
same,"Plant response rating, Bedstraw",[8]; [21],0
same,Bedstraw plant response rating,[8]; [22],0
same,Bedstraw plant response rating,[8]; [23],3
same,Bedstraw plant response rating,[8]; [24],8
same,Cocklebur plant response rating,[9]; [28],0
same,Cocklebur plant response rating,"[9]; Rate 250 g/ha, scale 0 to 10, 0 no effect, 10 complete control",1
same,"Plant response rating, Cocklebur",[9]; [28],0
same,"Plant response rating, Cocklebur","[9]; Rate 125 g/ha, scale 0 to 10 (0 no effect, 10 complete control)",0
same,"Plant response rating, Cocklebur","[9]; Rate 250 g/ha, scale of 0 to 10 where 0 is no effect and 10 is complete control",0
same,Cocklebur plant response rating,"[9]; Rate 125 g/ha, scale 0 to 10, 0 no effect, 10 complete control",0
same,Cocklebur plant response rating,"[9]; Rate 500 g/ha, 0 to 10 scale (0 no effect, 10 complete control)",2
same,Corn plant response rating,[10]; [17],0
same,Corn plant response rating,[10]; [18],0
same,"Plant response rating, Corn",[10]; [19],0
same,"Plant response rating, Corn",[10]; [20],0
same,"Plant response rating, Corn",[10]; [21],0
same,Corn plant response rating,[10]; [22],0
same,Corn plant response rating,[10]; [23],0
same,Corn plant response rating,[10]; [24],0
same,Wild oats plant response rating,[11]; [17],0
same,Wild oats plant response rating,[11]; [18],0
same,"Plant response rating, Wild oats",[11]; [20],0
same,"Plant response rating, Wild oats",[11]; [21],0
same,Wild oats plant response rating,[11]; [22],2
same,Wild oats plant response rating,[11]; [23],0
same,Wheat plant response rating,[12]; [17],0
same,Wheat plant response rating,[12]; [18],0
same,"Plant response rating, Wheat",[12]; [19],0
same,"Plant response rating, Wheat",[12]; [20],0
same,"Plant response rating, Wheat",[12]; [21],0
same,Wheat plant response rating,[12]; [22],0
same,Wheat plant response rating,[12]; [23],0
same,Barnyardgrass plant response rating,[13]; [17],0
same,Barnyardgrass plant response rating,[13]; [25],0
same,Barnyardgrass plant response rating,[13]; [27],8
same,Barnyardgrass plant response rating,[13]; [26],0
same,Nutsedge plant response rating,[14]; [17],0
same,Nutsedge plant response rating,[14]; [18],0
same,"Plant response rating, Nutsedge",[14]; [19],0
same,"Plant response rating, Nutsedge",[14]; [20],0
same,"Plant response rating, Nutsedge",[14]; [21],0
same,Nutsedge plant response rating,[14]; [22],0
same,Nutsedge plant response rating,[14]; [23],0
same,Nutsedge plant response rating,[14]; [24],0
same,Rice plant response rating,[15]; [17],0
same,Rice plant response rating,[15]; [25],0
same,Rice plant response rating,[15]; [27],0
same,Rice plant response rating,[15]; [26],0
same,Blackgrass plant response rating,[16]; [17],0
same,Blackgrass plant response rating,[16]; [18],3
same,"Plant response rating, Blackgrass",[16]; [19],0
same,"Plant response rating, Blackgrass",[16]; [20],1
same,"Plant response rating, Blackgrass",[16]; [21],4
same,Blackgrass plant response rating,[16]; [22],4
same,Blackgrass plant response rating,[16]; [23],1
same,Blackgrass plant response rating,[16]; [24],6
